Data on 31 molecules can be found in patent US10022387B2, “Aza-heteroaryl compounds as PI3K-gamma inhibitors” (Incyte Corporation, priority 2015, dated 2018).

Where a name gives a salt, the structure may show the parent alone.

This assay relates to Phosphorylated Ribosomal Protein S6 (RPS6) in THP-1 cells. Description: THP-1 RPS6 ELISA Assay. In kind it is cell-based. The conditions noted are these: Homo sapiens, 2 hours with compound, 10 nM MCP-1 for 15 minutes, read-out: THP p-RPS6 ELISA IC50. The procedure:
To measure the Phosphorylated Ribosomal Protein S6 (RPS6) in cell lysates, THP-1 cells (Human Acute Monocytic Leukemia) are purchased from ATCC (Manassas, Va.) and maintained in RPMI with 10% FBS (Gibco/Life Technologies, Carlsbad, Calif.). For the assay, THP-1 cells are serum starved overnight in RPMI, then plated in RPMI (2×10^5 cells/well in 90 μL) into 96-well flat-bottom tissue culture treated plates (Corning, Corning, N.Y.), in the presence or absence of a concentration range of test compounds. Covered plates are incubated for 2 hours at 37° C., 5% CO2 then treated with or without 10 nM MCP-1 (MYBioSource, San Diego, Calif.) for 15 minutes at 37° C., 5% CO2. Plates are centrifuged at 1600 RPM and supernatants are removed. Cells are lysed in Lysis Buffer (Cell Signaling, Danvers, Mass.) with Protease Inhibitor (Calbiochem/EMD, Germany), PMSF (Sigma, St. Louis, Mo.), HALTS (Thermo Fisher, Rockford, Ill.) for 30 min on wet ice. Cell lysates are frozen at −80° C. before testing. The lysates are tested in the Human/Mouse/Rat Phospho-RPS6 ELISA (R&D Systems, Inc. Minn, Minn.). The plate is measured using a microplate reader (SpectraMax M5—Molecular Devices, LLC Sunnyvale, Calif.) set to 450 nm with a wavelength correction of 540. IC50 determination is performed by fitting the curve of inhibitor percent inhibition versus the log of the inhibitor concentration using the GraphPad Prism 5.0 software.
In general terms: In an ELISA, binding on a coated surface is turned into a signal by an enzyme label.
A word on the IC50: it is the concentration that inhibits the measured activity by half. Regarding `CC(C)S(=O)(=O)Nc1cncc(-c2ccc3nc(-c4nc5ccccc5[nH]4)oc3c2)c1` [Example 24, N-(5-(2-(1H-Benzo[d]imidazol-2-yl)benzo[d]oxazol-6-yl)pyridin-3-yl)propane-2-sulfonamide], the IC50 is no less than 5 µM.

Turning to `OC(c1cncc(-c2ccc3nc(-c4nc5ccccc5[nH]4)oc3c2)c1)C(F)(F)F` (stereo not shown) [Example 74, 1-(5-(2-(1H-Benzo[d]imidazol-2-yl)benzo[d]oxazol-6-yl)pyridin-3-yl)-2,2,2-trifluoroethanol bis(trifluoroacetate)], the IC50 was no less than 5 µM. In the case of `CCS(=O)(=O)Nc1cc(-c2ccc3nc(-c4nc5ccccc5[nH]4)oc3c2)ccc1F` [Example 60, N-{5-[2-(1H-Benzimidazol-2-yl)-1,3-benzoxazol-6-yl]-2-fluorophenyl}ethanesulfonamide] it was no less than 5 µM. Take `O=S(=O)(Nc1cc(-c2ccc3nc(-c4nc5ccccc5[nH]4)oc3c2)cnc1Cl)c1ccc(F)cc1` [Example 29, N-(5-(2-(1H-Benzo[d]imidazol-2-yl)benzo[d]oxazol-6-yl)-2-chloropyridin-3-yl)-4-fluorobenzene-sulfonamide]: the IC50 is less than 1 µM. In the case of `Cc1nc(-c2nc3ccc(-c4cncc(C(O)C(F)(F)F)c4)cc3o2)[nH]c1C` (stereo not shown) [Example 67, 1-(5-(2-(4,5-Dimethyl-1H-imidazol-2-yl)benzo[d]oxazol-6-yl)pyridin-3-yl)-2,2,2-trifluoroethanol bis(trifluoroacetate)] it was less than 1 µM; in that of `O=S(=O)(CC(F)(F)F)Nc1cc(-c2ccc3nc(-c4nc5ccccc5[nH]4)oc3c2)cnc1F` [Example 75, N-(5-(2-(1H-Benzo[d]imidazol-2-yl)benzo[d]oxazol-6-yl)-2-fluoropyridin-3-yl)-2,2,2-trifluoroethanesulfonamide bis(trifluoroacetate)], less than 1 µM.

On to `CN1CCN(S(=O)(=O)Nc2cc(-c3ccc4nc(-c5nc6ccccc6[nH]5)oc4c3)cnc2F)CC1` [Example 32, N-(5-(2-(1H-Benzo[d]imidazol-2-yl)benzo[d]oxazol-6-yl)-2-fluoropyridin-3-yl)-4-methylpiperazine-1-sulfonamide], for which the 50% inhibitory concentration (IC50) is less than 1 µM. In the case of `CN(C)S(=O)(=O)Nc1cc(-c2ccc3nc(-c4nc5ccccc5[nH]4)oc3c2)cnc1F` [Example 23, N′-{5-[2-(1H-Benzimidazol-2-yl)-1,3-benzoxazol-6-yl]-2-fluoropyridin-3-yl}-N,N-dimethylsulfamide] it was less than 1 µM; in that of `OC(c1cncc(-c2ccc3nc(-c4nc5c([nH]4)CCCC5)oc3c2)c1)C(F)(F)F` (stereo not shown) [Example 68, 2,2,2-Trifluoro-1-(5-(2-(4,5,6,7-tetrahydro-1H-benzo[d]imidazol-2-yl)benzo[d]oxazol-6-yl)pyridin-3-yl)ethanol], less than 5 µM.

For `CN(C)S(=O)(=O)Nc1cncc(-c2ccc3nc(-c4nc5ccccc5[nH]4)oc3c2)c1` [Example 21, N′-{5-[2-(1H-Benzimidazol-2-yl)-1,3-benzoxazol-6-yl]-pyridin-3-yl}-N,N-dimethylsulfamide], the IC50 was less than 1 µM.

With `O=S(=O)(CC(F)(F)F)Nc1cncc(-c2ccc3nc(-c4nc5ccccc5[nH]4)oc3c2)c1` [Example 77, N-(5-(2-(1H-Benzo[d]imidazol-2-yl)benzo[d]oxazol-6-yl)pyridin-3-yl)-2,2,2-trifluoroethanesulfonamide bis(trifluoroacetate)], the IC50 was less than 1 µM. For `Cc1ncc(-c2ccc3nc(-c4nc5ccccc5[nH]4)oc3c2)cc1NS(=O)(=O)CC(F)(F)F` [Example 76, N-(5-(2-(1H-Benzo[d]imidazol-2-yl)benzo[d]oxazol-6-yl)-2-methylpyridin-3-yl)-2,2,2-trifluoroethanesulfonamide bis(trifluoroacetate)] the value was less than 1 µM; for `CCn1ncc2ccc(-c3ccc4nc(-c5nc6ccccc6[nH]5)oc4c3)cc21` [Example 54, 2-(1H-Benzimidazol-2-yl)-6-(1-ethyl-1H-indazol-6-yl)-1,3-benzoxazole bis(trifluoroacetate)], no less than 5 µM; for `Cc1n[nH]c2ccc(-c3ccc4nc(-c5nc6ccccc6[nH]5)oc4c3)cc12` [Example 50, 2-(1H-Benzimidazol-2-yl)-6-(3-methyl-1H-indazol-5-yl)-1,3-benzoxazole], no less than 5 µM. For `CCS(=O)(=O)Nc1cc(-c2ccc3nc(-c4nc5c([nH]4)CCCC5)oc3c2)cnc1OC` [Example 66, N-(2-Methoxy-5-(2-(4,5,6,7-tetrahydro-1H-benzo[d]imidazol-2-yl)benzo[d]oxazol-6-yl)pyridin-3-yl)ethanesulfonamide] the value was less than 5 µM. For `COc1cncc(-c2ccc3nc(-c4nc5ccccc5[nH]4)oc3c2)c1` [Example 4, 2-(1H-Benzo[d]imidazol-2-yl)-6-(5-methoxypyridin-3-yl)benzo[d]oxazole trifluoroacetate] the value was less than 5 µM. For the molecule `COc1cc(-c2ccc3nc(-c4nc5ccccc5[nH]4)oc3c2)cnc1F` [Example 69, 2-(1H-Benzo[d]imidazol-2-yl)-6-(6-fluoro-5-methoxypyridin-3-yl)benzo[d]oxazole bis(trifluoroacetate)], the IC50 was no less than 5 µM. In the case of `Cc1ncc(-c2ccc3nc(-c4nc5ccccc5[nH]4)oc3c2)cc1NS(=O)(=O)N(C)C` [Example 22, N′-{5-[2-(1H-Benzimidazol-2-yl)-1,3-benzoxazol-6-yl]-2-methylpyridin-3-yl}-N,N-dimethylsulfamide] it was less than 1 µM.

In the case of `N#Cc1cncc(-c2ccc3nc(-c4nc5ccccc5[nH]4)oc3c2)c1` [Example 35, 5-(2-(1H-Benzo[d]imidazol-2-yl)benzo[d]oxazol-6-yl)nicotinonitrile], the IC50 is less than 5 µM. For the molecule `O=S(=O)(Nc1cncc(-c2ccc3nc(-c4nc5ccccc5[nH]4)oc3c2)c1)c1ccc(F)cc1` [Example 17, N-(5-(2-(1H-Benzo[d]imidazol-2-yl)benzo[d]oxazol-6-yl)pyridin-3-yl)-4-fluorobenzenesulfonamide], the IC50 is less than 1 µM. For `O=S(=O)(Nc1cncc(-c2ccc3nc(-c4nc5ccccc5[nH]4)oc3c2)c1)c1cccc(F)c1` [Example 19, N-(5-(2-(1H-Benzo[d]imidazol-2-yl)benzo[d]oxazol-6-yl)pyridin-3-yl)-3-fluorobenzene-sulfonamide] the value was less than 5 µM; for `CN1CCN(S(=O)(=O)Nc2cncc(-c3ccc4nc(-c5nc6ccccc6[nH]5)oc4c3)c2)CC1` [Example 31, N-(5-(2-(1H-Benzo[d]imidazol-2-yl)benzo[d]oxazol-6-yl)pyridin-3-yl)-4-methylpiperazine-1-sulfonamide], less than 1 µM. For `CC(C)Oc1cncc(-c2ccc3nc(-c4nc5ccccc5[nH]4)oc3c2)c1` [Example 15, 2-(1H-Benzo[d]imidazol-2-yl)-6-(5-isopropoxypyridin-3-yl)benzo[d]oxazole] the value was less than 5 µM; for `CCCc1nc(-c2nc3ccc(-c4cncc(NS(=O)(=O)CC)c4)cc3o2)[nH]c1C` [Example 64, N-(5-(2-(5-Methyl-4-propyl-1H-imidazol-2-yl)benzo[d]oxazol-6-yl)pyridin-3-yl)ethanesulfonamide bis(trifluoroacetate)], no less than 5 µM. Regarding `O=S(=O)(Nc1cncc(-c2ccc3nc(-c4nc5ccccc5[nH]4)oc3c2)c1)N1CCCCC1` [Example 20, N-(5-(2-(1H-Benzo[d]imidazol-2-yl)benzo[d]oxazol-6-yl)pyridin-3-yl)piperidine-1-sulfonamide], the IC50 is less than 5 µM.

Take `CCn1ncc2ncc(-c3ccc4nc(-c5nc6ccccc6[nH]5)oc4c3)cc21` [Example 57, 6-[2-(1H-Benzimidazol-2-yl)-1,3-benzoxazol-6-yl]-1-ethyl-1H-pyrazolo[4,3-b]pyridine tris(trifluoroacetate)]: the IC50 is no less than 5 µM. Take `CS(=O)(=O)c1cncc(-c2ccc3nc(-c4nc5ccccc5[nH]4)oc3c2)c1` [Example 36, 2-(1H-Benzo[d]imidazol-2-yl)-6-(5-(methylsulfonyl)pyridin-3-yl)benzo[d]oxazole]: the IC50 is less than 5 µM. Turning to `OC(c1cncc(-c2ccc3nc(-c4ncc[nH]4)oc3c2)c1)C(F)(F)F` (stereo not shown) [Example 61, 1-(5-(2-(1H-Imidazol-2-yl)benzo[d]oxazol-6-yl)pyridin-3-yl)-2,2,2-trifluoroethanol bis(trifluoroacetate)], the IC50 was less than 1 µM. In the case of `CCS(=O)(=O)n1ncc2ccc(-c3ccc4nc(-c5nc6ccccc6[nH]5)oc4c3)cc21` [Example 52, 6-[1-(Ethylsulfonyl)-1H-indazol-6-yl]-2-(1H-benzimidazol-2-yl)-1,3-benzoxazole] it was no less than 5 µM; in that of `CN(C)S(=O)(=O)c1cncc(-c2ccc3nc(-c4nc5ccccc5[nH]4)oc3c2)c1` [Example 37, 5-[2-(1H-benzimidazol-2-yl)-1,3-benzoxazol-6-yl]-N,N-dimethylpyridine-3-sulfonamide], less than 5 µM; in that of `CCS(=O)(=O)Nc1cc(-c2ccc3nc(-c4nc5ccccc5[nH]4)oc3c2)cnc1Cl` [Example 26, N-(5-(2-(1H-Benzo[d]imidazol-2-yl)benzo[d]oxazol-6-yl)-2-chloropyridin-3-yl)ethanesulfonamide], less than 1 µM.
